The subject of experiment [1] is mechanical (tactile) allodynia in the left hind paw. Nature of the experiment: Assay Method 3: Rat Mild Thermal Injury Model (MTI), mechanical allodynia. In kind it is in vivo, Sprague-Dawley rats. The following applies: 0.5 h after administration. The source says: Assay Method 3—Rat Mild Thermal Injury Model (MTI)
Pathogen-free, male albino Sprague-Dawley rats were purchased from Harlan Industries (San Diego, Calif.) and maintained on a 12-h light/dark cycle (lights on at 9:00 AM and off at 9:00 PM) in a climate-controlled room. Food and water were available ad libitum up to the time of the testing.
Under isoflurane/oxygen anesthesia, a first-degree burn injury (erythema without blistering) was produced as follows: the plantar surface of the rat's left hind paw was placed on water-dampened 56° C. hotplate for 20 seconds and steady contact was maintained by applying an 84 g weight to the dorsum (after Nozaki-Taguchi & Yaksh, Neurosci. Lett. 1998, 254, 25-28).
Mild thermal injury results in mechanical allodynia in the left hind paw. Mechanical (tactile) allodynia was assessed by determining the median threshold at which the affected paw was withdrawn from graded stimuli (von Frey filaments ranging from 0.41 to 15.8 g) applied perpendicularly with sufficient force to bend slightly and held for 2-3 seconds against the proximal half of the third and fourth toe surfaces through wire-mesh observation cages. Paw flinching during or immediately following the removal of the stimulus was considered a positive response. A paw withdrawal threshold (PWT) was determined by sequentially increasing and decreasing the stimulus strength and analyzing withdrawal data using an adaptation of the Dixon up-down method, as described (Chaplan et al., J. Neurosci. 1994, 53, 55-63). Rats were included in the study only if their baseline PWT was 3.1623 g or lower (4.5 logarithmically).
Rats were tested for pre-injury thresholds prior to mild thermal injury and again for baseline thresholds after development of mechanical allodynia. Immediately after baseline measurement, test compound or vehicle was administered orally and the measurement was repeated at 0.5 h after administration. The tactile thresholds (log value) were converted to percent of a maximum possible effect ( %MPE): % MPE=[Threshold(t)−Threshold(baseline)]*100/[Threshold(pre)−Threshold(baseline)], where t=post-treatment time. Data were expressed as mean±standard error of the mean (S.E.M.). Statistical analysis was performed using two-way ANOVA with repeated measures with a significance level of p<0.05.
Results for compounds tested in this assay are presented in Table 2, as an average of results obtained. Compounds were tested in free base, hydrochloride salt, and/or trifluoroacetic acid salt forms.

In another experiment the target is T1, rat FAAH (Rattus norvegicus, UniProt P97612).
T1 sequence (P97612 1-579): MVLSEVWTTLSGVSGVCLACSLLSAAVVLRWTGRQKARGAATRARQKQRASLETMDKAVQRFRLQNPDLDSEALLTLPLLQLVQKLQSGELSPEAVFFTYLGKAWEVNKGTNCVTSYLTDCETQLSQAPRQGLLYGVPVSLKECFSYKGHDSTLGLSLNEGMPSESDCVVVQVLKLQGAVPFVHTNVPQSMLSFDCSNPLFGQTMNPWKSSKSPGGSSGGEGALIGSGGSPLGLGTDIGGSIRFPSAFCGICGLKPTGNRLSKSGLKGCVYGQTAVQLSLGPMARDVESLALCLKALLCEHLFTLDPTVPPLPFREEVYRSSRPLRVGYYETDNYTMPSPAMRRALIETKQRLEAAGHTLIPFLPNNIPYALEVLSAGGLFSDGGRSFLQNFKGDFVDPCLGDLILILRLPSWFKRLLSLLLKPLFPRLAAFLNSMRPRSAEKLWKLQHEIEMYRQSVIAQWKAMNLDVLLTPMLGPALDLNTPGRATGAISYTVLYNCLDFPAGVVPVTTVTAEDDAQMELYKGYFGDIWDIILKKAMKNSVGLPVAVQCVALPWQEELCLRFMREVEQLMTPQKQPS
Nature of the experiment: Assay Method 2: FAAH assay, 3H-anandamide hydrolysis in homogenate of SK-N-MC cells transfected with rat FAAH. The following applies: average of results, > = solubility limit or highest concentration tested. The format is biochemical. The gist of the method: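 Read-out is scintillation counting of [3H]-ethanolamine passing through activated charcoal, after 1 h at rt with 80 nM final [3H]-AEA. Enzyme source: lysate of G418-selected SK-N-MC clones expressing rat FAAH, homogenized in Tris/EDTA/glycerol/0.02% Triton buffer, pH 9.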

The target of a further experiment is T2, FAAH (Homo sapiens, UniProt O00519).
T2 sequence (O00519 1-579): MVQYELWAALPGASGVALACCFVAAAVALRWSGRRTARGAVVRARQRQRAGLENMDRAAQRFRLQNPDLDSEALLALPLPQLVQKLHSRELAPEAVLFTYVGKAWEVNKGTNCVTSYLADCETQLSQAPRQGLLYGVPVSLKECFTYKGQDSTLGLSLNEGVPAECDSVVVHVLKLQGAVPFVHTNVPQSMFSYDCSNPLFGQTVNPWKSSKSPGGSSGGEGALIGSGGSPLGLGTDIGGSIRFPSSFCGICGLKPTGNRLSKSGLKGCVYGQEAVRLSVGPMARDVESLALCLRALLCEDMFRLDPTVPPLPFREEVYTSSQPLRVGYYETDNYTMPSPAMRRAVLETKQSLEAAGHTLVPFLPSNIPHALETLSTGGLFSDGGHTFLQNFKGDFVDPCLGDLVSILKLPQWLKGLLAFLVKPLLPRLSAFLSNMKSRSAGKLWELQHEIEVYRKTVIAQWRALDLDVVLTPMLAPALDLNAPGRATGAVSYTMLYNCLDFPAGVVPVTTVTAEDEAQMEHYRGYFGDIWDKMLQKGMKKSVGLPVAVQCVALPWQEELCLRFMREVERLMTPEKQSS
Nature of the experiment: Assay Method 1: FAAH assay, 3H-anandamide hydrolysis in homogenate of T84 cells or SK-N-MC cells transfected with human FAAH. The format is biochemical. The conditions noted are these: average of results, > = solubility limit or highest concentration tested. In short, it runs like this:
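Hydrolysis of ^3H-anandamide (80 nM final, added last) was measured over 1 h at rt, using test compound with homogenate of T84 cells or human FAAH-transfected SK-N-MC cells. The homogenization buffer was 125 mM Tris, 1 mM EDTA, 0.02% Triton X-100, pH 9. Unbound labelled ethanolamine was passed through charcoal filters and scintillation-counted.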

Counter-ions that a name gives are not always drawn.

The IC50 is the concentration at which inhibition is half-maximal. Lower therefore signals higher potency.

As for `O=C(Nc1noc2ccccc12)N1CCN(Cc2cccc(Oc3ccc(Cl)cc3)c2)CC1` [Example 36, 4-[3-(4-Chloro-phenoxy)-benzyl]-piperazine-1-carboxylic acid benzo[d]isoxazol-3-ylamide trifluoroacetic acid salt], in experiment [1] (20 mg/Kg p.o., mean +/- S.E.M.), the “% MPE” value is on record as 38 +/− 13%. Moreover, on rat FAAH, inhibition was half-maximal at 10 nM (IC50).

For `O=C(Nc1ccon1)N1CCN(Cc2cccc(Oc3ccc(Cl)cc3)c2)CC1` [Example 46, 4-[3-(4-Chloro-phenoxy)-benzyl]-piperazine-1-carboxylic acid isoxazol-3-ylamide trifluoroacetic acid salt], the “% MPE” value in experiment [1] (6 mg/Kg p.o.) worked out at 0%.

Regarding `O=C(Nc1cnccn1)N1CCN(Cc2cccc(Oc3ccc(Cl)cc3)c2)CC1` [Example 58, 4-[3-(4-Chloro-phenoxy)-benzyl]-piperazine-1-carboxylic acid pyrazin-2-ylamide trifluoroacetic acid salt], the “% MPE” value in experiment [1] (20 mg/Kg p.o., mean +/- S.E.M.) was 52 +/− 7%. In addition, the IC50 against rat FAAH came to 9 nM.

As for `O=C(Nc1cnccn1)N1CCN(Cc2cccc(Oc3ccccc3)c2)CC1` [Example 227, 4-(3-Phenoxy-benzyl)-piperazine-1-carboxylic acid pyrazin-2-ylamide], the IC50 at FAAH was found to be 400 nM; at rat FAAH, 5300 nM.

As for `O=C(Nc1cnccn1)N1CCN(Cc2cccc(Oc3ccc4ccccc4c3)c2)CC1` [Example 228, 4-[3-(Naphthalen-2-yloxy)-benzyl]-piperazine-1-carboxylic acid pyrazin-2-ylamide], the results for the IC50 on FAAH and at rat FAAH were 30 nM and 80 nM, respectively.

Turning to `N#Cc1ccc(Oc2cccc(CN3CCN(C(=O)Nc4cnccn4)CC3)c2)cc1` [Example 229, 4-[3-(4-Cyano-phenoxy)-benzyl]-piperazine-1-carboxylic acid pyrazin-2-ylamide], the half-maximal inhibitory concentration (IC50) against FAAH was determined as 200 nM; at rat FAAH, 3000 nM.

On to `O=C(Nc1cnccn1)N1CCN(Cc2cc3ccccc3o2)CC1` [Example 230, 4-Benzofuran-2-ylmethyl-piperazine-1-carboxylic acid pyrazin-2-ylamide], for which the IC50 against FAAH stood at 4000 nM; against rat FAAH it was 6000 nM.

Regarding `O=C(Nc1cnccn1)N1CCN(Cc2cccc(Oc3ccc(F)c(F)c3)c2)CC1` [Example 231, 4-[3-(3,4-Difluorophenoxy)benzyl]-N-pyrazin-2-ylpiperazine-1-carboxamide], the concentration for half-maximal inhibition (IC50) against FAAH was found to be 130 nM; against rat FAAH, 3600 nM.

Consider `O=C(Nc1cnccn1)N1CCN(Cc2cccc(Oc3ccc4ncccc4c3)c2)CC1` [Example 232, N-Pyrazin-2-yl-4-[3-(quinolin-6-yloxy)benzyl]piperazine-1-carboxamide], for which the IC50 is 40 nM on FAAH and 240 nM against rat FAAH.

For the compound `O=C(Nc1cnccn1)N1CCN(Cc2cccc(Oc3ccc(OC(F)(F)F)cc3)c2)CC1` [Example 233, N-Pyrazin-2-yl-4-{3-[4-(trifluoromethoxy)phenoxy]benzyl}piperazine-1-carboxamide], the 50% inhibitory concentration (IC50) stood at 10 nM against FAAH and 140 nM at rat FAAH.

With `O=C(Nc1cnccn1)N1CCN(Cc2cccc(Oc3ccc(SC(F)(F)F)cc3)c2)CC1` [Example 234, N-Pyrazin-2-yl-4-(3-{4-[(trifluoromethyl)sulfanyl]phenoxy}benzyl)-piperazine-1-carboxamide], the IC50 against FAAH was found to be 6 nM; at rat FAAH, 12 nM.

Consider `N#Cc1cccc(Oc2cccc(CN3CCN(C(=O)Nc4cnccn4)CC3)c2)c1` [Example 235, 4-[3-(3-Cyanophenoxy)benzyl]-N-pyrazin-2-ylpiperazine-1-carboxamide], for which the IC50 on FAAH amounted to 600 nM; against rat FAAH, 6000 nM.

Turning to `N#Cc1ccc(Oc2cccc(CN3CCN(C(=O)Nc4cnccn4)CC3)c2)cc1C(F)(F)F` [Example 236, 4-{3-[4-Cyano-3-(trifluoromethyl)phenoxy]benzyl}-N-Pyrazin-2-ylpiperazine-1-carboxamide], the IC50 stood at 300 nM against FAAH and 8000 nM against rat FAAH.

Turning to `O=C(Nc1cnccn1)N1CCN(Cc2cccc(Oc3ccc4c(c3)OC(F)(F)O4)c2)CC1` [Example 237, 4-{3-[(2,2-Difluoro-1,3-benzodioxol-5-yl)oxy]benzyl}-N-pyrazin-2-ylpiperazine-1-carboxamide], the IC50 at FAAH stood at 5 nM; on rat FAAH it was 30 nM.

In the case of `O=C(Nc1cnccn1)N1CCN(Cc2cccc(Oc3ccccc3Cl)c2)CC1` [Example 238, 4-[3-(2-Chlorophenoxy)benzyl]-N-pyrazin-2-ylpiperazine-1-carboxamide], the 50% inhibitory concentration (IC50) worked out at 200 nM against FAAH and 1600 nM at rat FAAH.

On to `O=C(Nc1cnccn1)N1CCN(Cc2ccc3ccccc3n2)CC1` [Example 239, N-Pyrazin-2-yl-4-(quinolin-2-ylmethyl)piperazine-1-carboxamide], for which the results for the IC50 against FAAH and at rat FAAH were 700 nM and 6000 nM, respectively.

Turning to `O=C(Nc1cnccn1)N1CCN(Cc2cccc(Oc3cccc(Br)c3)c2)CC1` [Example 240, 4-[3-(3-Bromophenoxy)benzyl]-N-pyrazin-2-ylpiperazine-1-carboxamide], the values for the IC50 at FAAH and against rat FAAH were 20 nM and 80 nM, respectively.

On to `O=C(Nc1cnccn1)N1CCN(Cc2cccc(Oc3ccc(F)c(C(F)(F)F)c3)c2)CC1` [Example 241, 4-{3-[4-Fluoro-3-(trifluoromethyl)phenoxy]benzyl}-N-pyrazin-2-ylpiperazine-1-carboxamide], for which the IC50 against FAAH stood at 8 nM; on rat FAAH it was 370 nM.

As to `O=C(Nc1cnccn1)N1CCN(Cc2cccc(Oc3cccc(OC(F)(F)F)c3)c2)CC1` [Example 242, N-Pyrazin-2-yl-4-{3-[3-(trifluoromethoxy)phenoxy]benzyl}piperazine-1-carboxamide], the IC50 was found to be 9 nM against FAAH and 50 nM at rat FAAH.

As to `O=C(Nc1nccnc1Cl)N1CCN(Cc2cccc(Oc3ccc(Cl)cc3)c2)CC1` [Example 243, 4-[3-(4-Chlorophenoxy)benzyl]-N-(3-chloropyrazin-2-yl)piperazine-1-carboxamide], the IC50 on FAAH came to 2 nM; against rat FAAH, 9 nM.

For `O=C(Nc1cc(-c2ccccc2)[nH]n1)N1CCN(Cc2cccc(Oc3ccc(Cl)cc3)c2)CC1` [Example 244, 4-[3-(4-Chlorophenoxy)benzyl]-N-(5-phenyl-1H-pyrazol-3-yl)piperazine-1-carboxamide trifluoroacetate salt], the figures for the IC50 against FAAH and at rat FAAH were 1400 nM and 7000 nM, respectively.

The record behind these values is patent publication US20090062294A1, “HETEROARYL-SUBSTITUTED UREA MODULATORS OF FATTY ACID AMIDE HYDROLASE” (priority 2007, published 2009).
